Test results as given in PubChem BioAssay (NCI).
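Protocol summary: plate cells (96-well), add compound at 5 concentrations, incubate 48 h, interpolate endpoints linearly. GI50 is the concentration that inhibits growth by half. TGI denotes the concentration required for complete inhibition of growth.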

Assays:
Assay in all cases: NCI anticancer screen, dose series, 48 h; in the data active = GI50 below about 0.43 µM; inactive = the rest
SF-539 CNS = system: SF-539 CNS
K-562 leukemia = system: K-562 leukemia
HCC-2998 colon = system: HCC-2998 colon
HL-60(TB) leukemia = system: HL-60(TB) leukemia
CCRF-CEM leukemia = system: CCRF-CEM leukemia
TK-10 renal = system: TK-10 renal
T-47D breast = system: T-47D breast
MALME-3M melanoma = system: MALME-3M melanoma
DU-145 prostate = system: DU-145 prostate
786-0 renal = system: 786-0 renal
HCT-15 colon = system: HCT-15 colon
SW-620 colon = system: SW-620 colon
MDA-MB-435 = system: MDA-MB-435
NCI/ADR-RES ovarian = system: NCI/ADR-RES ovarian
SK-MEL-5 melanoma = system: SK-MEL-5 melanoma
HCT-116 colon = system: HCT-116 colon
NCI-H522 lung = system: NCI-H522 lung
KM12 colon = system: KM12 colon
SNB-19 CNS = system: SNB-19 CNS
SK-OV-3 ovarian = system: SK-OV-3 ovarian
SF-268 CNS = system: SF-268 CNS
SF-295 CNS = system: SF-295 CNS
OVCAR-8 ovarian = system: OVCAR-8 ovarian
IGROV1 ovarian = system: IGROV1 ovarian
RPMI-8226 leukemia = system: RPMI-8226 leukemia
UACC-62 melanoma = system: UACC-62 melanoma
OVCAR-3 ovarian = system: OVCAR-3 ovarian
SN12C renal = system: SN12C renal
OVCAR-4 ovarian = system: OVCAR-4 ovarian
HS 578T breast = system: HS 578T breast
NCI-H226 lung = system: NCI-H226 lung
SK-MEL-28 melanoma = system: SK-MEL-28 melanoma
MOLT-4 leukemia = system: MOLT-4 leukemia
HOP-92 NSCLC = system: HOP-92 NSCLC
RXF 393 renal = system: RXF 393 renal
PC-3 prostate = system: PC-3 prostate
SK-MEL-2 melanoma = system: SK-MEL-2 melanoma
CAKI-1 renal = system: CAKI-1 renal
UACC-257 melanoma = system: UACC-257 melanoma
HT29 colon = system: HT29 colon
MCF7 breast = system: MCF7 breast
LOX IMVI melanoma = system: LOX IMVI melanoma
ACHN renal = system: ACHN renal
M14 melanoma = system: M14 melanoma
UO-31 renal = system: UO-31 renal
SR leukemia = system: SR leukemia
MDA-MB-231 breast = system: MDA-MB-231 breast
NCI-H460 lung = system: NCI-H460 lung
A549 NSCLC = system: A549 NSCLC
NCI-H23 lung = system: NCI-H23 lung
HOP-62 NSCLC = system: HOP-62 NSCLC
OVCAR-5 ovarian = system: OVCAR-5 ovarian
BT-549 breast = system: BT-549 breast
U251 CNS = system: U251 CNS
EKVX NSCLC = system: EKVX NSCLC
SNB-75 CNS = system: SNB-75 CNS
COLO 205 colon = system: COLO 205 colon

CC[C@H](C)[C@H](NC(=O)c1ccccn1)C(=O)N(C)[C@H](C[C@@H](OC(C)=O)c1nc(C(=O)N[C@@H](Cc2ccccc2)C[C@H](C)C(=O)OC)cs1)C(C)C
> 100 µM: TGI (K-562 leukemia) | TGI (HCC-2998 colon) | TGI (CCRF-CEM leukemia) | TGI (TK-10 renal) | TGI (T-47D breast) | TGI (MALME-3M melanoma) | TGI (DU-145 prostate) | TGI (HCT-15 colon) | TGI (SW-620 colon) | TGI (NCI/ADR-RES ovarian) | TGI (KM12 colon) | TGI (SNB-19 CNS) | TGI (SK-OV-3 ovarian) | TGI (SF-268 CNS) | TGI (SF-295 CNS) | TGI (OVCAR-8 ovarian) | TGI (IGROV1 ovarian) | TGI (RPMI-8226 leukemia) | TGI (UACC-62 melanoma) | TGI (SN12C renal) | TGI (OVCAR-4 ovarian) | TGI (NCI-H226 lung) | TGI (SK-MEL-28 melanoma) | TGI (PC-3 prostate) | TGI (SK-MEL-2 melanoma) | TGI (CAKI-1 renal) | TGI (UACC-257 melanoma) | TGI (HT29 colon) | TGI (MCF7 breast) | TGI (LOX IMVI melanoma) | TGI (ACHN renal) | TGI (UO-31 renal) | TGI (A549 NSCLC) | TGI (NCI-H23 lung) | TGI (HOP-62 NSCLC) | TGI (OVCAR-5 ovarian) | TGI (U251 CNS) | TGI (EKVX NSCLC)
90.2 µM: TGI (MOLT-4 leukemia)
50.3 µM: TGI (HCT-116 colon)
81 µM: TGI (SR leukemia)
38.9 µM: TGI (NCI-H522 lung)
inactive: GI50 (SF-539 CNS) 17.1 µM | GI50 (K-562 leukemia) 17.5 µM | GI50 (HCC-2998 colon) 19.1 µM | GI50 (HL-60(TB) leukemia) 7.89 µM | GI50 (CCRF-CEM leukemia) 21.5 µM | GI50 (TK-10 renal) 54.1 µM | GI50 (T-47D breast) 43 µM | GI50 (MALME-3M melanoma) 15.7 µM | GI50 (DU-145 prostate) 34.7 µM | GI50 (786-0 renal) 16.1 µM | GI50 (HCT-15 colon) 21.7 µM | GI50 (SW-620 colon) 23.1 µM | GI50 (MDA-MB-435) 2.08 µM | GI50 (NCI/ADR-RES ovarian) 25.3 µM | GI50 (SK-MEL-5 melanoma) 10.7 µM | GI50 (HCT-116 colon) 11.2 µM | GI50 (NCI-H522 lung) 8.93 µM | GI50 (KM12 colon) 8.08 µM | GI50 (SNB-19 CNS) 33.8 µM | GI50 (SK-OV-3 ovarian) 33.4 µM | GI50 (SF-268 CNS) 29 µM | GI50 (SF-295 CNS) 21.7 µM | GI50 (OVCAR-8 ovarian) 33.3 µM | GI50 (IGROV1 ovarian) 11.6 µM | GI50 (RPMI-8226 leukemia) 6.98 µM | GI50 (UACC-62 melanoma) 4.56 µM | GI50 (OVCAR-3 ovarian) 10.9 µM | GI50 (SN12C renal) 30 µM | GI50 (OVCAR-4 ovarian) 31.1 µM | GI50 (HS 578T breast) 12.8 µM | GI50 (NCI-H226 lung) 45 µM | GI50 (SK-MEL-28 melanoma) 35.1 µM | GI50 (MOLT-4 leukemia) 24.7 µM | GI50 (HOP-92 NSCLC) 6.88 µM | GI50 (RXF 393 renal) 7.56 µM | GI50 (PC-3 prostate) 23.6 µM | GI50 (SK-MEL-2 melanoma) 12.8 µM | GI50 (CAKI-1 renal) 30.6 µM | GI50 (UACC-257 melanoma) 36.8 µM | GI50 (HT29 colon) 26.3 µM | GI50 (MCF7 breast) 4.92 µM | GI50 (LOX IMVI melanoma) 22.3 µM | GI50 (ACHN renal) 27.3 µM | GI50 (M14 melanoma) 9.25 µM | GI50 (UO-31 renal) 18 µM | GI50 (SR leukemia) 3.88 µM | GI50 (MDA-MB-231 breast) 15.7 µM | GI50 (NCI-H460 lung) 18.6 µM | GI50 (A549 NSCLC) 48.9 µM | GI50 (NCI-H23 lung) 24.6 µM | GI50 (HOP-62 NSCLC) 26.1 µM | GI50 (OVCAR-5 ovarian) 27.9 µM | GI50 (BT-549 breast) 11.4 µM | GI50 (U251 CNS) 28.5 µM | GI50 (EKVX NSCLC) 35.3 µM | GI50 (SNB-75 CNS) 5.73 µM | GI50 (COLO 205 colon) 16.8 µM
5.64 µM: TGI (MDA-MB-435)
57 µM: TGI (NCI-H460 lung)
38.4 µM: TGI (M14 melanoma)
45.7 µM: TGI (HS 578T breast)
50.8 µM: TGI (SF-539 CNS)
98 µM: TGI (SNB-75 CNS)
40.7 µM: TGI (OVCAR-3 ovarian)
80.9 µM: TGI (HOP-92 NSCLC)
48.2 µM: TGI (MDA-MB-231 breast)
42.5 µM: TGI (SK-MEL-5 melanoma) | TGI (BT-549 breast)
60.4 µM: TGI (RXF 393 renal)
42 µM: TGI (COLO 205 colon)
59.7 µM: TGI (786-0 renal)
54 µM: TGI (HL-60(TB) leukemia)
